From patent US9556159B2, “Renin inhibitor” (MITSUBISHI TANABE PHARMA CORPORATION, priority 2012, dated 2017)

target: T1, Recombinant human renin (Homo sapiens, UniProt P00797); test: Inhibitory activity against human renin (fluorogenic peptide substrate); type: biochemical; settings: 50% inhibitory concentration (IC50) against human renin, 37° C. for 1 hour
T1 sequence (P00797 67-406): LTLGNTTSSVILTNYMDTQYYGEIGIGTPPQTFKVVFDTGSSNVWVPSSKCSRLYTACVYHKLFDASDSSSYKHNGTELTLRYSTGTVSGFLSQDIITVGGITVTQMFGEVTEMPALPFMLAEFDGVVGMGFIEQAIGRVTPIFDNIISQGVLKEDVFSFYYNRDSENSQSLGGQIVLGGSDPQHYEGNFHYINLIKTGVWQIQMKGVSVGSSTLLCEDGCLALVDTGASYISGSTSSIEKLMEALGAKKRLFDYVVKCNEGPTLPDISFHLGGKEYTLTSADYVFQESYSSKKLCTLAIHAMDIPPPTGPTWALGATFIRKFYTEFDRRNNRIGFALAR

SMILES	IC50
COCCCc1cc([C@@H](C)N(C(=O)[C@H]2CNC[C@@H](COC)O2)C2CC2)cc(CCCNC(=O)OC)n1 [Example 382]	3.6 nM
COCCOc1cc([C@@H](C)N(C(=O)[C@H]2CNC[C@@H](COC)O2)C2CC2)cc(CCCNC(=O)OC)n1 [Example 383]	1.3 nM
COCCOc1cc([C@H](C)N(C(=O)[C@H]2CNC[C@@H](COC)O2)C2CC2)cc(CCCNC(=O)OC)n1 [Example 384]	3.2 nM
COCCCn1ncc2c(C)cc([C@@H](C)N(C(=O)[C@H]3CNC[C@@H](COC)O3)C3CC3)nc21 [Example 385]	4.3 nM
COC[C@@H]1CNC[C@H](C(=O)N(C2CC2)[C@H](C)c2cc(OC)nc(CCCNC(=O)OC)n2)O1 [Example 386]	3.2 nM
COC(=O)NCCCn1nc([C@@H](C)N(C(=O)[C@H]2CNCCO2)C2CC2)cc1C(C)(C)c1ccccc1 [Example 387]	4.4 nM
CCc1nc([C@@H](C)N(C(=O)[C@H]2CNCCO2)C2CC2)cc2c1ncn2CCCOC [Example 388]	1.8 nM
CCc1nc([C@@H](C)N(C(=O)[C@H]2CN[C@@H](C)CO2)C2CC2)cc2c1ncn2CCCOC [Example 389]	6.1 nM
COC(=O)NCCCn1nc([C@@H](C)N(C(=O)[C@H]2CNC[C@@H](C)O2)C2CC2)cc1C(C)(C)c1ccccc1 [Example 390]	3.5 nM
CCc1nc([C@@H](C)N(C(=O)[C@H]2CNC[C@@H](C)O2)C2CC2)cc2c1ncn2CCCOC [Example 392]	0.7 nM
CCc1nc([C@@H](C)N(C(=O)[C@H]2CN[C@@H](COC)CO2)C2CC2)cc2c1ncn2CCCOC [Example 393]	3.7 nM
CCc1nc([C@@H](C)N(C(=O)[C@H]2CNC[C@@H](COC)O2)C2CC2)cc2c1ncn2CCCOC [Example 394]	0.6 nM
CCc1nc([C@H](C)N(C(=O)[C@H]2CN[C@@H](C)CO2)C2CC2)cc2c1ccn2CCCOC [Example 397]	1.3 nM
COC(=O)NCCCc1nc([C@@H](C)N(C(=O)[C@H]2CNCCO2)C2CC2)sc1-c1cccc(F)c1 [Example 400]	2.3 nM
C=C(c1sc([C@@H](C)N(C(=O)[C@H]2CNCCO2)C2CC2)cc1CCCNC(=O)OC)C(F)(F)F [Example 401]	2.7 nM
COC(=O)NCCCc1nc([C@H](C)N(C(=O)[C@H]2CNCCO2)C2CC2)sc1-c1ccc(F)cc1 [Example 402]	2.3 nM
COC(=O)NCCCn1cc([C@@H](C)N(C(=O)[C@H]2CNC[C@@H](CF)O2)C2CC2)nc1C1CCOCC1 [Example 404]	0.7 nM
COC(=O)NCCCc1cc(C(C)N(C(=O)[C@H]2CNCCO2)C2CC2)sc1C(C)C(F)(F)F (some centres unmarked) [Example 405]	3.9 nM
COC(=O)NCCCc1sc(C(C)N(C(=O)[C@H]2CNCCO2)C2CC2)cc1-c1ccccc1F (some centres unmarked) [Example 406]	3.4 nM
COC(=O)NCCCc1cc(C(C)N(C(=O)[C@H]2CNCCO2)C2CC2)sc1-c1cnc2[nH]ccc2c1 (some centres unmarked) [Example 410]	6.7 nM
COC(=O)NCCCc1nc([C@@H](C)N(C(=O)[C@H]2CNCCO2)C2CC2)sc1-c1ccccc1C(=O)OC [Example 414]	2.8 nM
COC(=O)NCCCc1cc(C(C)N(C(=O)[C@H]2CNCCO2)C2CC2)sc1C1CCOCC1 (some centres unmarked) [Example 419]	1.4 nM
COC(=O)NCCCc1cc(C(C)N(C(=O)[C@H]2CNCCO2)C2CC2)sc1-c1cccnc1N (some centres unmarked) [Example 422]	1.7 nM
COC(=O)NCCCc1cc([C@@H](C)N(C(=O)[C@H]2CNCCO2)C2CC2)sc1C#CC(C)(C)O [Example 423]	1 nM
COC(=O)NCCCc1cc(C(C)N(C(=O)[C@H]2CNCCO2)C2CC2)sc1-c1ccc(N)nc1 (some centres unmarked) [Example 425]	8.8 nM
COC(=O)NCCCc1sc([C@@H](C)N(C(=O)[C@H]2CNCCO2)C2CC2)cc1-c1ccc(F)cc1 [Example 428]	8.1 nM
COC(=O)NCCCc1sc(C(C)N(C(=O)[C@H]2CNCCO2)C2CC2)cc1-c1ccnn1C (some centres unmarked) [Example 429]	2 nM
COC(=O)NCCCc1sc([C@@H](C)N(C(=O)[C@H]2CNCCO2)C2CC2)cc1-c1ccccc1C(=O)OC [Example 434]	2 nM
COC(=O)NCCCc1sc([C@@H](C)N(C(=O)[C@H]2CNCCO2)C2CC2)cc1-c1ccccc1CO [Example 435]	1.3 nM
COC(=O)NCCCc1nc([C@@H](C)N(C(=O)[C@H]2CNCCO2)C2CC2)sc1C(=O)Nc1ccccc1OC [Example 439]	8 nM

Now from value to compound:

IC50	SMILES
2 nM	CCOc1ncc([C@@H](C)N(C(=O)[C@H]2CNCCO2)C2CC2)nc1CCCNC(=O)OC [Example 391]
3.5 nM	CCOc1ncc(C(C)N(C(=O)[C@H]2CNC[C@@H](C)O2)C2CC2)nc1CCCNC(=O)OC (some centres unmarked) [Example 395]
4.8 nM	COC(=O)NCCCc1cc(C(C)N(C(=O)[C@H]2CNCCO2)C2CC2)sc1C1CC1 (some centres unmarked) [Example 396]
5.1 nM	CCOc1ncc(C(C)N(C(=O)[C@H]2CNC[C@@H](COC)O2)C2CC2)nc1CCCNC(=O)OC (some centres unmarked) [Example 398]
4 nM	CCc1cc(CCCNC(=O)OC)nc([C@@H](C)N(C(=O)[C@H]2CNCCO2)C2CC2)n1 [Example 399]
3.1 nM	COC(=O)NCCCc1nc(C(C)N(C(=O)[C@H]2CNCCO2)C2CC2)sc1-c1cccnc1 (some centres unmarked) [Example 403]
1.7 nM	COC(=O)NCCCc1nc([C@@H](C)N(C(=O)[C@H]2CNCCO2)C2CC2)sc1-c1ccnc(C)c1 [Example 407]
1.1 nM	COC(=O)NCCCc1nc([C@@H](C)N(C(=O)[C@H]2CNCCO2)C2CC2)sc1-c1ccc(C)nc1 [Example 408]
1 nM	COC(=O)NCCCc1cc([C@@H](C)N(C(=O)[C@H]2CNCCO2)C2CC2)sc1-c1cnc(N)nc1 [Example 409]
2.2 nM	C=C(C)c1sc(C(C)N(C(=O)[C@H]2CNCCO2)C2CC2)cc1CCCNC(=O)OC (some centres unmarked) [Example 411]
0.6 nM	COC(=O)NCCCc1cc([C@@H](C)N(C(=O)[C@H]2CNCCO2)C2CC2)sc1-c1cnc(N)nc1 [Example 412]
2 nM	COC(=O)NCCCc1nc([C@@H](C)N(C(=O)[C@H]2CNCCO2)C2CC2)sc1-c1cnn(C)c1 [Example 413]
0.6 nM	COC(=O)NCCCc1nc([C@@H](C)N(C(=O)[C@H]2CNCCO2)C2CC2)sc1-c1ccnn1C [Example 415]
3 nM	COC(=O)NCCCc1nc([C@@H](C)N(C(=O)[C@H]2CNCCO2)C2CC2)sc1-c1cncnc1 [Example 416]
3.4 nM	COC(=O)NCCCc1nc([C@@H](C)N(C(=O)[C@H]2CNCCO2)C2CC2)sc1-c1ccccc1F [Example 417]
3.9 nM	COC(=O)NCCCc1cc(C(C)N(C(=O)[C@H]2CNCCO2)C2CC2)sc1C(C)C (some centres unmarked) [Example 418]

IC50	SMILES
2.7 nM	COC(=O)NCCCc1cc(C(C)N(C(=O)[C@H]2CNCCO2)C2CC2)sc1C(C)CO (some centres unmarked) [Example 420]
2.2 nM	COC(=O)NCCCc1nc([C@@H](C)N(C(=O)[C@H]2CNCCO2)C2CC2)sc1-c1cn[nH]c1 [Example 421]
5 nM	COC(=O)NCCCc1nc([C@@H](C)N(C(=O)[C@H]2CNCCO2)C2CC2)cnc1O[C@H]1CCOC1 [Example 424]
3.5 nM	COC(=O)NCCCc1cc([C@H](C)N(C(=O)[C@H]2CNCCO2)C2CC2)sc1-c1ccnn1C [Example 427]
2.4 nM	COC(=O)NCCCc1sc(C(C)N(C(=O)[C@H]2CNCCO2)C2CC2)cc1-c1cccnc1 (some centres unmarked) [Example 430]
3.8 nM	COC(=O)NCCCc1sc([C@H](C)N(C(=O)[C@H]2CNCCO2)C2CC2)cc1-c1cnc(N)nc1 [Example 431]
3.3 nM	COC(=O)NCCCc1sc([C@@H](C)N(C(=O)[C@H]2CNCCO2)C2CC2)cc1-c1cnc(N)nc1 [Example 432]
5.3 nM	COC(=O)NCCCc1nc([C@@H](C)N(C(=O)[C@H]2CNCCO2)C2CC2)cnc1O[C@@H]1CCOC1 [Example 433]
2.2 nM	COCC(C)Oc1ncc(C(C)N(C(=O)C2CNCCO2)C2CC2)nc1CCCNC(=O)OC (centres unmarked) [Example 436]
2.7 nM	COC(=O)NCCCc1sc([C@H](C)N(C(=O)[C@H]2CNCCO2)C2CC2)cc1Br [Example 437]
2.4 nM	COC(=O)NCCCc1sc([C@@H](C)N(C(=O)[C@H]2CNCCO2)C2CC2)cc1Br [Example 438]
1.9 nM	COC(=O)NCCCc1cc(C(C)N(C(=O)[C@H]2CNCCO2)C2CC2)cnc1O[C@H]1CCOC1 (some centres unmarked) [Example 440]
0.8 nM	COC(=O)NCCCc1cc([C@@H](C)N(C(=O)[C@H]2CNCCO2)C2CC2)sc1C(C)=O [Example 441]
9.5 nM	COC(=O)NCCCc1nc([C@@H](C)N(C(=O)[C@H]2CNCCO2)C2CC2)cnc1N(C)C [Example 442]
2 nM	COC(=O)NCCCc1cc([C@@H](C)N(C(=O)[C@H]2CNCCO2)C2CC2)cnc1O[C@H]1CCOC1 [Example 443]
4.2 nM	COCCNc1ncc([C@@H](C)N(C(=O)[C@H]2CNCCO2)C2CC2)nc1CCCNC(=O)OC [Example 444]
